Results from article PMC7933229 (Scientific Reports, 2021).
Read-outs that look alike come from different tables or passages of the source. Blank lines part the entries; values can stand above or below the molecule they belong to. Residues, ends and D or L forms follow the SMILES beside them.

Legend:
ACE (from rabbit lung) = biological target: T1, ACE (from rabbit lung) (Oryctolagus cuniculus, UniProt P12822); experiment: ACE inhibitory activity (HHL substrate, RP-HPLC of hippuric acid); type: biochemical
T1 construct: ACE (from rabbit lung) were obtained from Sigma-Aldrich Co; purchased Sigma-Aldrich Co. (St. Louis, MO, USA); host or cells: rabbit lung (tissue-derived enzyme)
T1 sequence (P12822 34-1310): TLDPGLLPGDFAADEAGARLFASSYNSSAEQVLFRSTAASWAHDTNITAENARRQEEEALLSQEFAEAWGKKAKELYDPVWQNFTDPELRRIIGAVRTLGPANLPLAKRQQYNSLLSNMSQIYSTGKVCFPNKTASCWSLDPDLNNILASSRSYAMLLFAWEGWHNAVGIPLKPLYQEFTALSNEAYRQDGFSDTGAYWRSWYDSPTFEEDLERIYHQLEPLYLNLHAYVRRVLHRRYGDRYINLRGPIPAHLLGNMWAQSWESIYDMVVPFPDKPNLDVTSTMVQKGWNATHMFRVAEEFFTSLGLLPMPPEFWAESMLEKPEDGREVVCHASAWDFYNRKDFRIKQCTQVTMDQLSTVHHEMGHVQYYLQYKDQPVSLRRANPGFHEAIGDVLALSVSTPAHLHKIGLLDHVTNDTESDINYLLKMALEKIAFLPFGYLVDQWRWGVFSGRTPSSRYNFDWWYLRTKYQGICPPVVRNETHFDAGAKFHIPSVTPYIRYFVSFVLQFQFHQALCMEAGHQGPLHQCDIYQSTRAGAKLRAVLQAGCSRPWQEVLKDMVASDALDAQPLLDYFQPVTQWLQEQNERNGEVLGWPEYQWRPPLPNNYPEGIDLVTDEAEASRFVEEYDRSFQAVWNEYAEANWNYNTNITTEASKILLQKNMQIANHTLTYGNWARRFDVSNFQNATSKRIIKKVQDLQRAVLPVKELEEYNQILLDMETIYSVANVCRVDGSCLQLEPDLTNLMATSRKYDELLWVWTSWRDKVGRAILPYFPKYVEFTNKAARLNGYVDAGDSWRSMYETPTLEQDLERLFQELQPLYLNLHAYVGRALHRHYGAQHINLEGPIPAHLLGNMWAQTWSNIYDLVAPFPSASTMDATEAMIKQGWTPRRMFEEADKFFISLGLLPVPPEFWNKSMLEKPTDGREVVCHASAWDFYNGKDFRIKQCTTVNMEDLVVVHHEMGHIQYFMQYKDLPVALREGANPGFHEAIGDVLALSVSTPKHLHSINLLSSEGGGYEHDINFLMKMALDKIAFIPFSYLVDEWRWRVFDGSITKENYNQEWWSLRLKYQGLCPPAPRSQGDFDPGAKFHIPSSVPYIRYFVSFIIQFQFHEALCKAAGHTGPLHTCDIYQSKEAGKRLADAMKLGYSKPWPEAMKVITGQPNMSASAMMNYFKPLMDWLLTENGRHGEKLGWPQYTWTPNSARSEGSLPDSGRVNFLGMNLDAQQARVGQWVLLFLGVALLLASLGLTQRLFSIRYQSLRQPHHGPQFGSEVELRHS
Excerpt: Wheat gluten was obtained from CF Haishi Biotechnology Ltd. Co. (Beijing, China) and kept in sealed plastic bags at room temperature until use. Alcalase 2.4L (2.4 AU/g) was purchased from Novo Nordisk (Copenhagen, Denmark). Protex 7L (1600 AU/g) and α-amylase (26,000 RAU/g) were bought from Genencor Division of Danisco (Rochester, NY, USA). Fluorescein sodium salt, Trolox, DPPH, 2,2′-azobis(2-methylpropionamidine) dihydrochloride (AAPH), hippuryl-histidyl-leucine (HHL), hippuric acid (HA), and ACE (from rabbit lung) were obtained from Sigma-Aldrich Co. (St. Louis, MO, USA). The ABTS assay kit was supplied by Beyotime Biotechnology (Haimen, China). Acetonitrile and methanol were provided by Fisher Scientific (Pittsburgh, PA, USA). Trifluoroacetic acid (TFA) was supplied by Alfa Aesar (Ward Hill, MA, USA). Synthesized peptides were obtained from Scilight Biotechnology Co., Ltd (Beijing, China). The purity of the synthesized peptides was more than 98% according to HPLC analysis. All other chemicals were of analytical grade.
The modified approach of Cushman and Cheung[68] was used to analyze ACE inhibitory activity. Briefly, the preincubation of 20 µL of sample and 30 µL of ACE solution (60 mU/mL) was performed at 37 °C for 5 min. After adding 50 µL of the substrate (7.6 mmol/L HHL in 50 mmol/L sodium borate buffer containing 300 mmol/L NaCl at pH 8.3), the 30-min incubation of the mixture was performed at ambient temperature. The reaction was ceased with 100 µL of 1.0 mol/L HCl. RP-HPLC was employed to determine the amount of HA liberated by ACE on an Inertsil ODS-SP C18 column (4.6 mm × 150 mm, Shimadzu, Kyoto, Japan). The peak area was subject to the calculation of ACE inhibitory activity.

ACE = conditions: cited from earlier work
[1] = biological target: T2, angiotensin I-converting enzyme (ACE) from rabbit lung (rabbit) (UniProt P12822)
T2 sequence: T1 sequence (P12822 34-1310)

[2] = calculated from mmol/L values, read-out: ACE IC50 calculated in the units of mg/mL (converted)
[3] = synthesized peptides, read-out: ACE IC50

IC50 (ACE (from rabbit lung); [2]): 2 mM
IC50 (ACE (from rabbit lung); [3]): 2 ± 0.13 mM
Molecule: NC(=O)CC[C@H](NC(=O)[C@@H](N)Cc1ccc(O)cc1)C(=O)O [Tyr-Gln] (H-Tyr-Gln-OH)

Molecule: Ala-His-Ser-Tyr (AHSY; printed: Ala-His-Ser-Tyr)
IC50 (ACE; isolated from cuttlefish): 0.0116 mM

IC50 (ACE (from rabbit lung); [2]): 1.48 mM
IC50 (ACE (from rabbit lung); [3]): 1.48 ± 0.11 mM
Molecule: N=C(N)NCCC[C@H](N)C(=O)NCC(=O)NCC(=O)N[C@@H](Cc1ccc(O)cc1)C(=O)O [Arg-Gly-Gly-Tyr] (H-RGGY-OH)

Molecule: Gly-Gly-Tyr
IC50 (ACE): 0.0013 mM

IC50 (ACE (from rabbit lung); [2]): 0.599 mM
IC50 (ACE (from rabbit lung); [3]): 0.6 ± 0.03 mM
Molecule: CC(C)C[C@H](N)C(=O)N[C@H](C(=O)N[C@@H](CO)C(=O)O)C(C)C [Leu-Val-Ser] (H-Leu-Val-Ser-OH)

IC50 (ACE (from rabbit lung); [2]): 1.47 mM
IC50 (ACE (from rabbit lung); [3]): 1.47 ± 0.08 mM
Molecule: C[C@H](N)C(=O)N1CCC[C@H]1C(=O)N[C@@H](CO)C(=O)N[C@@H](Cc1ccc(O)cc1)C(=O)O [Ala-Pro-Ser-Tyr] (H-APSY-OH)

IC50 of ACE inhibitory activity (hippuric acid liberated from HHL by ACE, RP-HPLC) [1]: 0.31 mM
Molecule: Leu-Tyr (peptide)

IC50 of ACE inhibitory activity (hippuric acid liberated from HHL by ACE, RP-HPLC) [1]: 2 mM
Molecule: Tyr-Gln (peptide)

IC50 of ACE inhibitory activity (hippuric acid liberated from HHL by ACE, RP-HPLC) [1]: 0.6 mM
Molecule: Leu-Val-Ser (peptide)

IC50 of ACE inhibitory activity (hippuric acid liberated from HHL by ACE, RP-HPLC) [1]: 1.47 mM
B1: Ala-Pro-Ser-Tyr (peptide)
peptide: APSY

IC50 of ACE inhibitory activity (hippuric acid liberated from HHL by ACE, RP-HPLC) [1]: 1.48 mM
B2: Arg-Gly-Gly-Tyr (peptide)
peptide: RGGY
